Laboratory results reported in PubChem BioAssay (NCI).
Values joined by “and” are separate entries in the source; they are usually repeats but may differ in a detail not shown here. Equal values may be shown once.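 Where inhibition never reached the appropriate level, the endpoint shown equals the highest concentration tested. Otherwise, values were interpolated linearly from a five-concentration, 48-hour dose response in 96-well plates. Here, GI50 denotes the concentration required for 50% inhibition of growth. At the TGI there is no net growth.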

Columns and labels:
Experiment in all cases: inhibition of tumour cell growth, NCI panel, 48 h
[1] = tested on: RPMI-8226 leukemia
[2] = tested on: CCRF-CEM leukemia
[3] = tested on: SK-MEL-2 melanoma
[4] = tested on: ACHN renal
[5] = tested on: SK-OV-3 ovarian
[6] = tested on: LXFL 529 NSCLC
[7] = tested on: SNB-78 CNS
[8] = tested on: HOP-62 NSCLC
[9] = tested on: EKVX NSCLC
[10] = tested on: SF-268 CNS

Row | Compound | TGI [1] | TGI [2] | TGI [3] | TGI [4] | TGI [5] | TGI [6] | GI50 [7] | TGI [7] | TGI [8] | TGI [9] | TGI [10] | GI50 [1] | GI50 [2] | GI50 [3] | GI50 [4] | GI50 [5] | GI50 [9] | GI50 [10] | GI50 [6] | GI50 [8]
1 | O=C1c2ccccc2-c2c3c(cc4ccnc1c24)OCO3 | 29.3 µM and 54.4 µM | 39 µM and 20.7 µM | 19.3 µM and 28.5 µM | 24 µM and 29.3 µM | 84.4 µM and > 100 µM | 51.5 µM and > 100 µM | 14.9 µM and 6.03 µM | 66.1 µM and > 100 µM | 21.1 µM | 11.7 µM and 35.7 µM | 47.1 µM and > 100 µM |  |  |  |  |  |  |  |  | 
2 | O=C(O)Cc1cccc2c(=O)cc(-c3ccccc3)oc12 | 250 µM and > 1000 µM | 237 µM and 747 µM | 250 µM and > 1000 µM | > 1000 µM | 250 µM and > 1000 µM |  |  | > 250 µM | 250 µM and > 1000 µM | 250 µM and > 1000 µM | > 1000 µM | 388 µM | > 49.6 µM and 29.8 µM | 844 µM | 813 µM | > 813 µM | 611 µM | 814 µM |  | 
3 | c1ccc(SC(Sc2ccccc2)=C2CCC2)cc1 | > 100 µM | > 100 µM | > 100 µM | > 100 µM | > 100 µM |  |  | > 100 µM | > 100 µM | > 100 µM | > 100 µM |  |  |  |  |  |  |  |  | 
4 | CN(C)c1ccc(/C=c2\sc3nnc(-c4ccco4)n3c2=O)cc1 | > 100 µM | > 100 µM | > 100 µM |  | > 100 µM | > 100 µM |  | > 100 µM | > 100 µM | > 100 µM | > 100 µM |  |  |  |  |  |  |  |  | 
5 | CCN(CC)CCN(CC)CC.CCN(CC)CCN(CC)CC.[Cu+2].[Cu+2].[O-][Cl+3]([O-])([O-])[O-].[OH3+].[OH3+] | > 100 µM | > 100 µM |  | > 100 µM | 27.3 µM | > 100 µM | > 100 µM | > 100 µM | 40.3 µM |  | 50.3 µM | 83.2 µM | 37.6 µM |  | > 100 µM | 13.9 µM |  | 23.9 µM | > 100 µM | 22.5 µM
6 | CCC[CH2][Sn](=[O])[CH2]CCC | > 50 µM | > 50 µM | > 50 µM | > 50 µM | > 50 µM | > 50 µM | > 50 µM | > 50 µM | > 50 µM | > 50 µM | > 50 µM | > 50 µM | > 50 µM | > 50 µM | > 50 µM | > 50 µM | > 50 µM | > 50 µM | > 50 µM | > 50 µM
7 | Cc1cccc(-c2nnc3s/c(=C\c4ccc(N(C)C)cc4)c(=O)n23)c1 | > 100 µM | > 100 µM | > 100 µM | > 100 µM | > 100 µM | > 100 µM |  | > 100 µM | > 100 µM | > 100 µM | > 100 µM |  |  |  |  |  |  |  |  | 
8 | Cc1ccc(/C=C/C(=O)c2ccc(Cl)c(Cl)c2)cc1 |  | > 100 µM | > 100 µM | > 100 µM |  | > 100 µM |  | > 100 µM | > 100 µM | > 100 µM | > 100 µM |  |  |  |  |  |  |  |  | 
9 | CC(Oc1ccc2c(-c3ccc(Cl)cc3)cc(=O)oc2c1)C(=O)O (stereo unspecified) |  | > 100 µM |  | > 100 µM | > 100 µM | > 100 µM |  | > 100 µM | > 100 µM | > 100 µM | > 100 µM |  |  |  |  |  |  |  |  | 
10 | O=[N+]([O-])c1nccn1CC(O)c1ccccc1 (stereo unspecified) | > 100 µM | > 100 µM | > 100 µM | > 100 µM | > 100 µM | > 100 µM |  |  | > 100 µM | > 100 µM | > 100 µM |  |  |  |  |  |  |  |  | 
11 | COc1ccc(/C=C/c2cc(OC)c(OC(C)=O)c(OC)c2)cc1 | > 100 µM | > 100 µM | > 100 µM | > 100 µM | > 100 µM | > 100 µM |  | 76.1 µM | 73.7 µM | > 100 µM | > 100 µM |  |  |  |  |  |  |  |  | 
12 | CCOC(=O)C12CCCC1(O)N(NC(=O)OC)C(C)=C2C(=O)OC (stereo unspecified) | > 100 µM | > 100 µM | 47.3 µM | > 100 µM | > 100 µM | > 100 µM |  | > 100 µM | > 100 µM | > 100 µM | > 100 µM |  |  |  |  |  |  |  |  | 
13 | O=C(C[n+]1ccccc1)N/N=C(/CCC(=O)N(Cc1ccccc1)Cc1ccccc1)CC(=O)c1ccccc1 | > 100 µM | > 100 µM | > 100 µM | > 100 µM |  | > 100 µM |  | > 100 µM | > 100 µM | > 100 µM | > 100 µM |  |  |  |  |  |  |  |  | 
14 | O=C1C2CCN(CC2)C1CN1CCOCC1 (stereo unspecified) | 13.7 µM | > 23.8 µM | 32.5 µM | 4.18 µM | 31.7 µM | 3.88 µM |  | 56.1 µM | 34 µM | 33.8 µM | 34.3 µM |  |  |  |  |  |  |  |  | 
15 | CSC(=O)C[C@@]12O[C@@H]([C@@H](C)C3CCC4[C@@H]5C(O)CC6=CC(=O)C=C[C@]6(C)C5CC[C@@]43C)C[C@](C)(O1)C(C)(C)O2 (stereo partly specified) | 34.3 µM | 19.1 µM | 45 µM |  | 42.6 µM | 26.4 µM |  | 37.6 µM | 34.8 µM |  | 34.6 µM |  |  |  |  |  |  |  |  | 
16 | COc1ccc(CC(=O)NCCc2ccc(OC)c(OC)c2OC)cc1 | > 100 µM | > 100 µM | > 100 µM | > 100 µM | > 100 µM | > 100 µM |  | > 100 µM | > 100 µM | > 100 µM | > 100 µM |  |  |  |  |  |  |  |  | 
17 | COC(=O)CCC(=O)Nc1ccc(Cl)cc1C | > 100 µM | > 100 µM | > 100 µM | > 100 µM | > 100 µM | > 100 µM |  | > 100 µM | > 100 µM | > 100 µM | > 100 µM |  |  |  |  |  |  |  |  | 
18 | COc1ccc(C(=O)C2CCC(C(=O)O)C2)cc1 (stereo unspecified) | > 100 µM | > 100 µM | > 100 µM | > 100 µM | > 100 µM | > 100 µM |  | > 100 µM | > 100 µM | > 100 µM |  |  |  |  |  |  |  |  |  | 
19 | CC(=O)OC12C(C)=C(C)C(=O)N1c1ccccc1N2C(C)=O (stereo unspecified) | > 100 µM | > 100 µM | > 100 µM | > 100 µM | > 100 µM | > 100 µM |  | > 100 µM | > 100 µM | > 100 µM | > 100 µM |  |  |  |  |  |  |  |  | 
20 | CCCCCCCCCCCCSC(=S)c1c(C)[nH]n(-c2ccccc2)c1=O | > 50 µM | 23.2 µM |  | > 50 µM | > 50 µM | > 50 µM |  | > 50 µM | 15.6 µM | > 50 µM | > 50 µM |  |  |  |  |  |  |  |  | 
21 | Nc1nc(=O)n(C2CCC(CO)O2)cc1F (stereo unspecified) | > 100 µM | > 100 µM | > 100 µM | > 100 µM | > 100 µM | > 100 µM |  | > 100 µM | > 100 µM | > 100 µM | > 100 µM |  |  |  |  |  |  |  |  | 
22 | CC(C)(C)C(=O)N1C(C(=O)O)Cc2ccccc2[C@@H]1Cc1ccccc1 (stereo partly specified) | > 100 µM | > 100 µM | > 100 µM | > 100 µM | > 100 µM | > 100 µM |  | > 100 µM | > 100 µM | > 100 µM | > 100 µM |  |  |  |  |  |  |  |  | 
